According to PubChem BioAssay AID602178 (NMMLSC, 2012):
Activity calls are given as the source filed them. The rule behind the calls is not given here.

Target: Lethal factor (Bacillus anthracis) (UniProt P15917)
Experiment: Bacillus anthracis LF protease inhibitors, dose response, biochemical, multiplex microsphere, cherry pick 1 compounds (AID 602178)
Conditions: multiplex microsphere protease cleavage assay, LF inhibition

Lethal factor (Bacillus anthracis), sequence (P15917 whole entry, looked up): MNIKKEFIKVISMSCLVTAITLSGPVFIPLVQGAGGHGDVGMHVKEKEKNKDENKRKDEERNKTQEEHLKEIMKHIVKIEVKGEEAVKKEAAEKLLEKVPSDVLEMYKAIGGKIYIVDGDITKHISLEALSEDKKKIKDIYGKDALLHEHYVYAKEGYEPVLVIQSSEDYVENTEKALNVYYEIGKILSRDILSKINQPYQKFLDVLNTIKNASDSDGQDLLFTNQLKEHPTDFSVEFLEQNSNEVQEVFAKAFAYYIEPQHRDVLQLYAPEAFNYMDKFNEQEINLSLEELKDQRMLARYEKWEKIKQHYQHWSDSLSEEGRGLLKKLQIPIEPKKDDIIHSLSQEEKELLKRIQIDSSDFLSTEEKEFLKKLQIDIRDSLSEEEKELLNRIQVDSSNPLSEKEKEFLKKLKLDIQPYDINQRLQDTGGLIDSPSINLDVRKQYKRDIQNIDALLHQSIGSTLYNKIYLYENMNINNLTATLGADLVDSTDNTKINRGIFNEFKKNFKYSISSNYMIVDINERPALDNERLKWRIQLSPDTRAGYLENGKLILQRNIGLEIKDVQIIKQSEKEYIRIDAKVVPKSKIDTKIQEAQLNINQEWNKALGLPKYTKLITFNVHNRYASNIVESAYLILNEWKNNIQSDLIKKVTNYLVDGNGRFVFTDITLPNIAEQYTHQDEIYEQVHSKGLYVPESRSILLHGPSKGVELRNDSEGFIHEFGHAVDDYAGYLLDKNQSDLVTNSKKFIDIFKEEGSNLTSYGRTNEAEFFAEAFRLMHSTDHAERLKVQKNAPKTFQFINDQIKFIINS

## Oc1[nH]c(N=C2N=c3ccccc3=N2)c2ccccc12
  EC50: > 20 µM (inactive)
